Results from doi:10.1101/2025.07.30.667614, “Steric control of signaling bias in the immunometabolic receptor GPR84” (bioRxiv, 2025).
Like-named read-outs stand apart in the source and are kept apart here.

Assays:
[1] = molecular target: Leu336Ala GPR84 (GPR84-Gi2 fusion protein) (Homo sapiens, UniProt Q9NQS5, L336A); assay: Competition binding assay with orthosteric antagonist [3H]140
Experimental: Binding was initiated by the addition of 5 μg membrane protein generated from Flp-In™ T-REx™ cells induced to express the receptor construct of interest with 100 ng/ml doxycycline. Nonspecific binding of the radioligand was determined in the presence of 10 μM compound 837. All assays were performed at 25 °C for 1 h before termination by the addition of ice-cold phosphate-buffered saline (PBS) and vacuum filtration through GF/C glassfibre filter-bottom 96-well microplates using a UniFilter FilterMate Harvester (Revvity). Each well was washed three times with ice-cold PBS and filters were allowed to dry for 2–3 h before addition of 50 μl of Ultima Gold™ XR. Radioactivity was quantified by liquid scintillation spectrometry.

[2] = molecular target: T1, GPR84 W360A (GPR84-Gi2α fusion protein) (Homo sapiens, UniProt Q9NQS5, W360A); assay: [35S]GTPγS binding assay; format: biochemical; details: for fold reduced potency compared to wild type: Trp360Ala; for Emax: read-out: Emax ± SEM
T1 construct: FLAG (N); Gαi2-Cys352Ile (fusion partner) (C); expressed in transfected cells
Experimental: (§1) Membranes were generated from Flp-In™ T-REx™ 293 cells following 100 ng/ml doxycycline treatment to induce receptor expression. Cells were washed with ice-cold phosphate-buffered saline (PBS), removed from dishes by scraping and centrifuged at 1,800 x g for 5 min at 4 °C. Pellets were resuspended in TE buffer (10mM Tris-HCl, 0.1 mM EDTA; pH 7.4) containing a protease inhibitor mixture and homogenized with a 5 ml hand-held homogenizer. Samples were centrifuged at 450 x g for 5 min at 4 °C and the supernatant was further centrifuged at 90,000 x g for 45 min at 4 °C. The resulting pellet was resuspended in TE buffer and protein content was assessed using a BCA protein assay kit.
(§2) Prepared membrane protein (3 μg per well) was incubated in assay buffer (20 mM HEPES, 5 mM MgCl2, 160 mM NaCl, 0.05 % fatty-acid-free bovine serum albumin; pH 7.4) containing the indicated ligand concentrations. The reaction was initiated by addition of [^35S]GTPγS (100 nCi per reaction) with 1 μM GDP, and incubated at 30 °C for 60 min. The reaction was terminated by rapid vacuum filtration through GF/C glassfibre filter-bottom 96-well microplates using a UniFilter FilterMate Harvester (PerkinElmer). Unbound radioligand was removed from filters by three washes with ice-cold PBS. Ultima Gold™ XR was added to dried filters, and [^35S]GTPγS binding quantified by liquid scintillation spectroscopy.

[3] = molecular target: T2, GPR84 T167A (GPR84-Gi2α fusion protein) (Homo sapiens, UniProt Q9NQS5, T167A); assay: [35S]GTPγS binding assay; format: biochemical; details: for fold reduction in potency compared to wild type: Thr167Ala; for Emax: read-out: Emax ± SEM
T2 construct: FLAG (N); Gαi2-Cys352Ile (fusion partner) (C); expressed in transfected cells
Experimental: as §1, §2

[4] = molecular target: T3, GPR84 L336A (GPR84-Gi2α fusion protein) (Homo sapiens, UniProt Q9NQS5, L336A); assay: [35S]GTPγS binding assay; format: biochemical
T3 construct: FLAG (N); Gαi2-Cys352Ile (fusion partner) (C); expressed in transfected cells
Experimental: as §1, §2

[5] = molecular target: GPR84-WT (GPR84-Gi2α fusion protein) (Homo sapiens, UniProt Q9NQS5); assay: [35S]GTPγS binding assay; format: biochemical; details: for Emax: read-out: Emax ± SEM
Experimental: as §1, §2

[6] = molecular target: T4, GPR84 Y69A (GPR84-Gi2α fusion protein) (Homo sapiens, UniProt Q9NQS5, Y69A); assay: [35S]GTPγS binding assay; format: biochemical; details: for Emax: read-out: Emax ± SEM
T4 construct: FLAG (N); Gαi2-Cys352Ile (fusion partner) (C); expressed in transfected cells
Experimental: as §1, §2

[7] = molecular target: T5, GPR84 Y81A (GPR84-Gi2α fusion protein) (Homo sapiens, UniProt Q9NQS5, Y81A); assay: [35S]GTPγS binding assay; format: biochemical; details: for fold reduced potency compared to wild type: Tyr81Ala; for Emax: read-out: Emax ± SEM
T5 construct: FLAG (N); Gαi2-Cys352Ile (fusion partner) (C); expressed in transfected cells
Experimental: as §1, §2

[8] = pKa measurement (Sirius T3 UV-metric and pH-metric titration); format: physicochemical; details: 25 °C, ionic strength 0.15 M; read-out: measured pKa of the hydroxyl group
Experimental: OX04529 pKa was determined using a UV-metric titration method on a Sirius T3 with a combination Ag/AgCl pH electrode. 5 μL of OX04529 stock solution was added to 25 μL of a neutral linear buffer. The sample was then pre-acidified to pH < 2.0 using 0.5 M HCl and titrated three times until pH > 12.0 using 0.5 M KOH. Titrations were carried out at a constant ionic strength of 0.15 M (adjusted with KCl) and maintained at 25.0 ±0.5 °C. UV absorbance data across varying wavelengths and pH values were recorded. Molar absorption profiles and species distribution plots were generated in the Sirius T3 software, from which apparent pKa value was calculated.
OX04529 pKa was measured using pH-metric titration on the Sirius T3 system. The solution was pre-acidified to pH < 3.0 with 0.5 M HCl and titrated three times until pH > 11.0 using 0.5 M KOH.

GPR84 Y332F = molecular target: T6, GPR84 Y332F (Homo sapiens, UniProt Q9NQS5, Y332F); assay: BRET β-arrestin-1 recruitment assay, HEK293T cells; format: cell-based
T6 construct: FLAG (N); Gαi2-Cys352Ile (fusion partner) (C); expressed in transfected cells
Experimental: As a control, cells were transfected with 100:1 ratio of empty plasmid and the appropriate arrestin isoform fused to nano-luciferase. After 24 h, cells were seeded at 50,000 cells per well in poly-D-lysine-coated white 96-well plates and incubated at 37°C overnight. After 24 h, cells were washed twice with Hank’s balanced salt solution (HBSS), pH 7.4, and 10 μl/well of the nano-luciferase substrate coelenterazine-h (Nanolight Technologies) was added to a final concentration of 5 μM. Cells were incubated in the dark for 10 min at 37°C, after which 10 μl/well of the agonist compound was added, and the cells were incubated for another 5 minutes. 15 min after coelenterazine-h addition, reading of emission signals were performed on a PHERAstar FS plate reader (BMG Labtech) at 475 and 535 nm, representing nano-luciferase and eYFP emission signals, respectively. The net bioluminescence resonance energy transfer (BRET) ratio (mBRET) was calculated as follows: mBRET=(BRET^sample−BRET^control)*1000whereBRET=Emission^535nm/Emission^475nm

[9] = L336A, read-out: pEC50 ± SEM (converted)

[O-][n+]1cc(O)cc(CCc2ccc(Cl)c(C(F)(F)F)c2)c1 [OX04529]
Ki [1]: 1.51 nM | fold reduced potency compared to wild type ([2]; [35S]GTPγS): ~10 fold | EC50 ([2]; [35S]GTPγS, W360A): 8.71 nM | Emax [2]: 75 ± 10% | EC50 ([3]; [35S]GTPγS, T167A): 17.8 nM | fold reduction in potency compared to wild type ([3]; [35S]GTPγS): greater than 10 fold | Emax [3]: 82 ± 10% | EC50 [4, 9]: 0.0692 nM | fold greater potency than at wild type ([4]; Leu336Ala): more than 10 fold | EC50 ([4]; Leu336Ala, read-out: EC50): ~0.1 nM | EC50 ([5]; pEC50 ± SEM, [35S]GTPγS, GPR84-WT, Extended Data Table 3): 1.26 nM | EC50 ([5]; pEC50 ± SEM, [35S]GTPγS, GPR84-WT, Extended Data Tables 1 and 5): 1.17 nM | Emax [5]: 119 ± 13% | EC50 ([6]; [35S]GTPγS, Y69A): 4.57 nM | Emax [6]: 94 ± 9% | fold reduced potency compared to wild type ([7]; [35S]GTPγS): ~10 fold | EC50 ([7]; [35S]GTPγS, Y81A): 21.4 nM | Emax [7]: 85 ± 4% | pKa [8]: 6.26

Cc1cc(CCCc2cc(O)c[n+]([O-])c2)ccc1Cl [OX04954]
EC50 (GPR84 Y332F): 50.1 nM | Emax (GPR84 Y332F; HEK-293T): 40 ± 4% | fold reduced potency compared to wild type ([2]; [35S]GTPγS): ~10 fold | EC50 ([2]; [35S]GTPγS, W360A): 13.5 nM | Emax ([2]; [35S]GTPγS, W360A): 75 ± 8% | EC50 ([3]; [35S]GTPγS, T167A): 15.1 nM | Emax ([3]; [35S]GTPγS, T167A): 129 ± 15% | fold reduction in potency compared to wild type ([3]; [35S]GTPγS): ~10 fold | EC50 [4, 9]: 0.0427 nM | EC50 ([5]; [35S]GTPγS, GPR84-WT, Extended Data Table 3, read-out: pEC50 ± SEM (converted)): 0.661 nM | Emax ([5]; [35S]GTPγS, GPR84-WT, Extended Data Tables 1 and 5): 129 ± 12% | EC50 ([5]; [35S]GTPγS, GPR84-WT, Extended Data Tables 1 and 5, read-out: pEC50 ± SEM (converted)): 0.661 nM | EC50 ([6]; [35S]GTPγS, Y69A): 5.13 nM | Emax ([6]; [35S]GTPγS, Y69A): 106 ± 4% | fold reduced potency compared to wild type ([7]; [35S]GTPγS): ~10 fold | EC50 ([7]; [35S]GTPγS, Y81A): 16.2 nM | Emax ([7]; [35S]GTPγS, Y81A): 133 ± 18%
